In patent US20140235444A1, “SYNERGISTIC SUPRESSION OF GRASS SEEDHEAD PRODUCTION FROM APPLICATIONS OF AMINOCYCLOPYRACHLOR AND METSULFURON” (Dow AgroSciences LLC, priority 2013, published 2014):

System: X fescue in a Kentucky blue grass mix
Experiment: Field trial, prevention or suppression of grass seedhead production, postemergence foliar application
Type: in vivo
Conditions: 12 days after application, scale 0-100% vs untreated control
Method: Field trials were conducted with applications made to established pastures having X fescue in a Kentucky blue grass mix. The target plants were treated with postemergence foliar applications when they were approximately 6-10 inches tall. All treatments were applied using a randomized complete block trial design, with four replications per treatment.
Treatments consisted of aminocyclopyrachlor in acid form and metsulfuron-methyl, each in water and applied alone or in combination. Spray solutions were prepared using an appropriate amount of dilution to form a 1 liter (L) aqueous spray solution with active ingredients in single and two-way combinations. Formulated compounds were applied to the plant material with a backpack sprayer equipped with 8003 flat fan nozzles calibrated to deliver 20 gallons per acre (gal/acre) or 187 liters per hectare (L/ha) at a spray height of 15 inches (38.1 centimeters (cm)) above the grass.
The treated plots and control plots were rated blind at various intervals after application. […]
Colby's equation was used to determine the seedhead-suppressant effects expected from the mixtures, as described above. The results were measured at 12 days after the first application of the compositions. […]

| Compound | Mean % seedhead suppression (Aminocyclopyrachlor alone, 70 g ae/ha) [%] | Mean % seedhead suppression (Metsulfuron-Methyl alone, 13 g ae/ha) [%] |
| --- | --- | --- |
| Nc1nc(C2CC2)nc(C(=O)O)c1Cl [Aminocyclopyrachlor, 6-amino-5-chloro-2-cyclopropylpyrimidine-4-carboxylic acid] | 5.0 | – |
| Metsulfuron-Methyl | – | 80.0 |
